Test results: PMC6409085, “Three odorant-binding proteins are involved in the behavioral response of Sogatella furcifera to rice plant volatiles” (PeerJ, 2019)
Where “and” joins values, the source holds several entries; their conditions need not be identical. Equal values may be shown once.

What was measured:
SfurOBP1 = SfurOBP1 (Sogatella furcifera, UniProt V5T8N5); assay: biochemical; format: binding; settings: for Fluorescence competitive binding assay, fluorescence intensity: OBP1, three replicate columns
SfurOBP1, sequence (V5T8N5 entry or part of it): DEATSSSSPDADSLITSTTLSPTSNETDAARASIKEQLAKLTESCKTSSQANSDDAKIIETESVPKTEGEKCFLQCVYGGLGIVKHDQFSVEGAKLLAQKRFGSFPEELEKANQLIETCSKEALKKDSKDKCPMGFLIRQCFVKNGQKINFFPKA
In short: (§1)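 1-NPN displacement assay with odorant competitor at 2–20 µM; protein and probe both 2.0 µM at pH 7.4. Ki is calculated from IC50 using the protein/1-NPN dissociation constant.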

SfurOBP11 = SfurOBP11 (Sogatella furcifera, UniProt V5T6E3); assay: biochemical; format: binding
SfurOBP11, sequence (V5T6E3 entry or part of it): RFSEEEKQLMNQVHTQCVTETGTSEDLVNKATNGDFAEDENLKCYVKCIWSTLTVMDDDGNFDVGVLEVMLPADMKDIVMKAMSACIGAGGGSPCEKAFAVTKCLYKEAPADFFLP
In short: as §1

SfurOBP2 = SfurOBP2 (Sogatella furcifera, UniProt V5T759); assay: biochemical; format: binding
SfurOBP2, sequence (V5T759 entry or part of it): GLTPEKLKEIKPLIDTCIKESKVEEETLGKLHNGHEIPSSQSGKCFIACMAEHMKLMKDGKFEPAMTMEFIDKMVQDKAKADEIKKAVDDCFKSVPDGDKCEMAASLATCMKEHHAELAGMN
In short: as §1

SfurOBP3 = SfurOBP3 (Sogatella furcifera, UniProt V5T818); assay: biochemical; format: binding; settings: for Fluorescence competitive binding assay, fluorescence intensity: OBP3, three replicate columns
SfurOBP3, sequence (V5T818 entry or part of it): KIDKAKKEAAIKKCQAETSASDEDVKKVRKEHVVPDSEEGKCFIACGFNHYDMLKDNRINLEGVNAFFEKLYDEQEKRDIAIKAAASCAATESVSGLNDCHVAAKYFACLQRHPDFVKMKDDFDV
In short: as §1

S. furcifera adults = assay: Y-tube olfactometer behavioral trials; format: in vivo, Sogatella furcifera; settings: odorant 50 µL/L vs hexane; adults
In short: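 Single S. furcifera adults (2 days post-emergence, starved 0.5 h) chose between odorant (100 µL of 50 µL/L on filter paper) and hexane control in a glass Y-tube, charcoal-filtered humidified air 300 mL/min per arm, 25 ± 1 °C, 50% RH. Choice scored if insect passed half an arm and stayed >1 min within 10 min; 45 insects per compound, chi-squared test.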

SMILES: CCCCCCCCCCCCCC [n-tetradecane]
- Fluorescence competitive binding assay, fluorescence intensity (SfurOBP1; ligand concentration 2 (μM)): 6022 and 9475 and 7407
- Fluorescence competitive binding assay, fluorescence intensity (SfurOBP1; ligand concentration 4 (μM)): 7163 and 8831 and 6832
- Fluorescence competitive binding assay, fluorescence intensity (SfurOBP1; ligand concentration 6 (μM)): 9235 and 7734 and 8738
- Fluorescence competitive binding assay, fluorescence intensity (SfurOBP1; ligand concentration 8 (μM)): 7490 and 9773 and 9402
- Fluorescence competitive binding assay, fluorescence intensity (SfurOBP1; ligand concentration 10 (μM)): 10034 and 9701 and 9801
- Fluorescence competitive binding assay, fluorescence intensity (SfurOBP1; ligand concentration 12 (μM)): 16511 and 14895 and 12657
- Fluorescence competitive binding assay, fluorescence intensity (SfurOBP1; ligand concentration 14 (μM)): 9553 and 12263 and 10210
- Fluorescence competitive binding assay, fluorescence intensity (SfurOBP1; ligand concentration 16 (μM)): 10515 and 10611 and 10617
- Fluorescence competitive binding assay, fluorescence intensity (SfurOBP1; ligand concentration 18 (μM)): 11876 and 13682 and 11119
- Fluorescence competitive binding assay, fluorescence intensity (SfurOBP1; ligand concentration 20 (μM)): 17922 and 11049 and 10258
- IC50 (SfurOBP1; SfurOBP1, protein and 1-NPN both 2.0 µM, competitor 2-20 µM, read-out: IC50): > 20 µM
- IC50 (SfurOBP11; SfurOBP11, protein and 1-NPN both 2.0 µM, competitor 2-20 µM, read-out: IC50): > 20 µM
- Fluorescence intensity, fluorescence competitive binding assay, OBP11 (SfurOBP11; ligand concentration 2, replicate 1): 29943
- Fluorescence intensity, fluorescence competitive binding assay, OBP11 (SfurOBP11; ligand concentration 2, replicate 2): 27499
- Fluorescence intensity, fluorescence competitive binding assay, OBP11 (SfurOBP11; ligand concentration 2, replicate 3): 28054
- Fluorescence intensity, fluorescence competitive binding assay, OBP11 (SfurOBP11; ligand concentration 4, replicate 1): 30256
- Fluorescence intensity, fluorescence competitive binding assay, OBP11 (SfurOBP11; ligand concentration 4, replicate 2): 30866
- Fluorescence intensity, fluorescence competitive binding assay, OBP11 (SfurOBP11; ligand concentration 4, replicate 3): 29645
- Fluorescence intensity, fluorescence competitive binding assay, OBP11 (SfurOBP11; ligand concentration 6, replicate 1): 26462
- Fluorescence intensity, fluorescence competitive binding assay, OBP11 (SfurOBP11; ligand concentration 6, replicate 2): 29047
- Fluorescence intensity, fluorescence competitive binding assay, OBP11 (SfurOBP11; ligand concentration 6, replicate 3): 31220
- Fluorescence intensity, fluorescence competitive binding assay, OBP11 (SfurOBP11; ligand concentration 8, replicate 1): 26278
- Fluorescence intensity, fluorescence competitive binding assay, OBP11 (SfurOBP11; ligand concentration 8, replicate 2): 28884
- Fluorescence intensity, fluorescence competitive binding assay, OBP11 (SfurOBP11; ligand concentration 8, replicate 3): 31318
- Fluorescence intensity, fluorescence competitive binding assay, OBP11 (SfurOBP11; ligand concentration 10, replicate 1): 27323
- Fluorescence intensity, fluorescence competitive binding assay, OBP11 (SfurOBP11; ligand concentration 10, replicate 2): 28751
- Fluorescence intensity, fluorescence competitive binding assay, OBP11 (SfurOBP11; ligand concentration 10, replicate 3): 30741
- Fluorescence intensity, fluorescence competitive binding assay, OBP11 (SfurOBP11; ligand concentration 12, replicate 1): 30511
- Fluorescence intensity, fluorescence competitive binding assay, OBP11 (SfurOBP11; ligand concentration 12, replicate 2): 30637
- Fluorescence intensity, fluorescence competitive binding assay, OBP11 (SfurOBP11; ligand concentration 12, replicate 3): 30384
- Fluorescence intensity, fluorescence competitive binding assay, OBP11 (SfurOBP11; ligand concentration 14, replicate 1): 29980
- Fluorescence intensity, fluorescence competitive binding assay, OBP11 (SfurOBP11; ligand concentration 14, replicate 2): 30187
- Fluorescence intensity, fluorescence competitive binding assay, OBP11 (SfurOBP11; ligand concentration 14, replicate 3): 31537
- Fluorescence intensity, fluorescence competitive binding assay, OBP11 (SfurOBP11; ligand concentration 16, replicate 1): 25150
- Fluorescence intensity, fluorescence competitive binding assay, OBP11 (SfurOBP11; ligand concentration 16, replicate 2): 28430
- Fluorescence intensity, fluorescence competitive binding assay, OBP11 (SfurOBP11; ligand concentration 16, replicate 3): 29261
- Fluorescence intensity, fluorescence competitive binding assay, OBP11 (SfurOBP11; ligand concentration 18, replicate 1): 33050
- Fluorescence intensity, fluorescence competitive binding assay, OBP11 (SfurOBP11; ligand concentration 18, replicate 2): 34724
- Fluorescence intensity, fluorescence competitive binding assay, OBP11 (SfurOBP11; ligand concentration 18, replicate 3): 33545
- Fluorescence intensity, fluorescence competitive binding assay, OBP11 (SfurOBP11; ligand concentration 20, replicate 1): 33953
- Fluorescence intensity, fluorescence competitive binding assay, OBP11 (SfurOBP11; ligand concentration 20, replicate 2): 35669
- Fluorescence intensity, fluorescence competitive binding assay, OBP11 (SfurOBP11; ligand concentration 20, replicate 3): 33542
- IC50 (SfurOBP2; SfurOBP2, protein and 1-NPN both 2.0 µM, competitor 2-20 µM, read-out: IC50): > 20 µM
- Fluorescence competitive binding assay, OBP2 (raw fluorescence reading) (SfurOBP2; ligand concentration 2 (unit not given), replicate column 1 of 3): 17681
- Fluorescence competitive binding assay, OBP2 (raw fluorescence reading) (SfurOBP2; ligand concentration 2 (unit not given), replicate column 2 of 3): 15844
- Fluorescence competitive binding assay, OBP2 (raw fluorescence reading) (SfurOBP2; ligand concentration 2 (unit not given), replicate column 3 of 3): 16950
- Fluorescence competitive binding assay, OBP2 (raw fluorescence reading) (SfurOBP2; ligand concentration 4 (unit not given), replicate column 1 of 3): 17519
- Fluorescence competitive binding assay, OBP2 (raw fluorescence reading) (SfurOBP2; ligand concentration 4 (unit not given), replicate column 2 of 3): 20288
- Fluorescence competitive binding assay, OBP2 (raw fluorescence reading) (SfurOBP2; ligand concentration 4 (unit not given), replicate column 3 of 3): 20488
- Fluorescence competitive binding assay, OBP2 (raw fluorescence reading) (SfurOBP2; ligand concentration 6 (unit not given), replicate column 1 of 3): 19784
- Fluorescence competitive binding assay, OBP2 (raw fluorescence reading) (SfurOBP2; ligand concentration 6 (unit not given), replicate column 2 of 3): 21064
- Fluorescence competitive binding assay, OBP2 (raw fluorescence reading) (SfurOBP2; ligand concentration 6 (unit not given), replicate column 3 of 3): 19193
- Fluorescence competitive binding assay, OBP2 (raw fluorescence reading) (SfurOBP2; ligand concentration 8 (unit not given), replicate column 1 of 3): 20311
- Fluorescence competitive binding assay, OBP2 (raw fluorescence reading) (SfurOBP2; ligand concentration 8 (unit not given), replicate column 2 of 3): 19912
- Fluorescence competitive binding assay, OBP2 (raw fluorescence reading) (SfurOBP2; ligand concentration 8 (unit not given), replicate column 3 of 3): 20694
- Fluorescence competitive binding assay, OBP2 (raw fluorescence reading) (SfurOBP2; ligand concentration 10 (unit not given), replicate column 1 of 3): 21153
- Fluorescence competitive binding assay, OBP2 (raw fluorescence reading) (SfurOBP2; ligand concentration 10 (unit not given), replicate column 2 of 3): 20155
- Fluorescence competitive binding assay, OBP2 (raw fluorescence reading) (SfurOBP2; ligand concentration 10 (unit not given), replicate column 3 of 3): 21164
- Fluorescence competitive binding assay, OBP2 (raw fluorescence reading) (SfurOBP2; ligand concentration 12 (unit not given), replicate column 1 of 3): 17882
- Fluorescence competitive binding assay, OBP2 (raw fluorescence reading) (SfurOBP2; ligand concentration 12 (unit not given), replicate column 2 of 3): 20189
- Fluorescence competitive binding assay, OBP2 (raw fluorescence reading) (SfurOBP2; ligand concentration 12 (unit not given), replicate column 3 of 3): 20719
- Fluorescence competitive binding assay, OBP2 (raw fluorescence reading) (SfurOBP2; ligand concentration 14 (unit not given), replicate column 1 of 3): 19553
- Fluorescence competitive binding assay, OBP2 (raw fluorescence reading) (SfurOBP2; ligand concentration 14 (unit not given), replicate column 2 of 3): 20680
- Fluorescence competitive binding assay, OBP2 (raw fluorescence reading) (SfurOBP2; ligand concentration 14 (unit not given), replicate column 3 of 3): 20531
- Fluorescence competitive binding assay, OBP2 (raw fluorescence reading) (SfurOBP2; ligand concentration 16 (unit not given), replicate column 1 of 3): 20438
- Fluorescence competitive binding assay, OBP2 (raw fluorescence reading) (SfurOBP2; ligand concentration 16 (unit not given), replicate column 2 of 3): 19246
- Fluorescence competitive binding assay, OBP2 (raw fluorescence reading) (SfurOBP2; ligand concentration 16 (unit not given), replicate column 3 of 3): 20069
- Fluorescence competitive binding assay, OBP2 (raw fluorescence reading) (SfurOBP2; ligand concentration 18 (unit not given), replicate column 1 of 3): 24630
- Fluorescence competitive binding assay, OBP2 (raw fluorescence reading) (SfurOBP2; ligand concentration 18 (unit not given), replicate column 2 of 3): 24806
- Fluorescence competitive binding assay, OBP2 (raw fluorescence reading) (SfurOBP2; ligand concentration 18 (unit not given), replicate column 3 of 3): 23381
- Fluorescence competitive binding assay, OBP2 (raw fluorescence reading) (SfurOBP2; ligand concentration 20 (unit not given), replicate column 1 of 3): 26164
- Fluorescence competitive binding assay, OBP2 (raw fluorescence reading) (SfurOBP2; ligand concentration 20 (unit not given), replicate column 2 of 3): 20955
- Fluorescence competitive binding assay, OBP2 (raw fluorescence reading) (SfurOBP2; ligand concentration 20 (unit not given), replicate column 3 of 3): 19728
- Fluorescence competitive binding assay, fluorescence intensity (SfurOBP3; ligand concentration 2): 83183 and 87404 and 88774
- Fluorescence competitive binding assay, fluorescence intensity (SfurOBP3; ligand concentration 4): 91510 and 89708 and 93194
- Fluorescence competitive binding assay, fluorescence intensity (SfurOBP3; ligand concentration 6): 97532 and 94447 and 95269
- Fluorescence competitive binding assay, fluorescence intensity (SfurOBP3; ligand concentration 8): 93074 and 89520 and 89172
- Fluorescence competitive binding assay, fluorescence intensity (SfurOBP3; ligand concentration 10): 92952 and 88800 and 85833
- Fluorescence competitive binding assay, fluorescence intensity (SfurOBP3; ligand concentration 12): 87947 and 90919 and 89332
- Fluorescence competitive binding assay, fluorescence intensity (SfurOBP3; ligand concentration 14): 86216 and 85989 and 89098
- Fluorescence competitive binding assay, fluorescence intensity (SfurOBP3; ligand concentration 16): 77694 and 82013 and 80619
- Fluorescence competitive binding assay, fluorescence intensity (SfurOBP3; ligand concentration 18): 91776 and 100406 and 90755
- Fluorescence competitive binding assay, fluorescence intensity (SfurOBP3; ligand concentration 20): 89755 and 85247 and 85349
- IC50 (SfurOBP3; SfurOBP3, protein and 1-NPN both 2.0 µM, competitor 2-20 µM, read-out: IC50): > 20 µM
- number of insects choosing hexane arm (S. furcifera adults): 13
- number of insects choosing volatilies arm (S. furcifera adults): 14
- number of insects failed (no choice) (S. furcifera adults): 13
